Results: US5498632A, “Esters of acyl carnitines with long-chain aliphatic alcohols and pharmaceutical compositions containing same having antibacterial activity” (Sigma-Tau Industrie Farmaceutiche Riunite S.p.A., priority 1992, dated 1996)
Where two headings read alike, the source gives them in different places.

Columns and labels:
Assay type in all cases: cell-based
[1] = tested on: Staphylococcus aureus (303); assay: MIC in broth, Gram+ strains; details: S. aureus (303), Mueller-Hinton broth, 37° C., 18 hours, read-out: Minimal Inhibitory Concentration (MIC)
Protocol: (§1) Evaluation of the Minimal Inhibitory Concentration (MIC) in broth of 15 new substances for Gram+ bacterial strains.
(§2) The following strains were used: Staphylococcus aureus (4); Streptococcus faecalis (8); Bacillus pumilus (1); Bacillus subtilis (1).
(§3) MICs were determined by a standard microdilution test, using serial two-fold dilutions of the substances in Mueller-Hinton broth.
(§4) The inoculum was prepared from an overnight culture in Mueller-Hinton broth matching the 0.5 Mc Farland (turbidity) standard (BRAY W. E., Clinical Laboratory Methods, 5th Ed. C. V. MOSBY, St. Louis, Mo. 1957), and was adjusted to a final concentration of 5.0×10^4 colony-forming units/ml.
(§5) Equal volumes (0.1 ml) of both bacterial suspensions and substance solutions were distributed in microtiter plates (Falcon, 96 wells, round bottom), and then placed in a humidified incubator (37° C.) for 18 hours.
(§6) The results, in terms of MIC values, resistant strain number and mean MIC values versus susceptible strains, are illustrated in Tables 1-6.

[2] = tested on: Staphylococcus aureus (LC1); assay: MIC in broth, Gram+ strains; details: S. aureus (LC1), Mueller-Hinton broth, 37° C., 18 hours, read-out: Minimal Inhibitory Concentration (MIC)
Protocol: as §1, §2, §3, §4, §5, §6

[3] = tested on: Streptococcus faecalis (518); assay: MIC in broth, Gram+ strains; details: Enterococcus faecalis; S. faecalis (518), Mueller-Hinton broth, 37° C., 18 hours; read-out: Minimal Inhibitory Concentration (MIC)
Protocol: as §1, §2, §3, §4, §5, §6

[4] = tested on: Streptococcus faecalis (519); assay: MIC in broth, Gram+ strains; details: Enterococcus faecalis; S. faecalis (519), Mueller-Hinton broth, 37° C., 18 hours; read-out: Minimal Inhibitory Concentration (MIC)
Protocol: as §1, §2, §3, §4, §5, §6

Gram+ bacterial strains = assay: Mean MIC in broth and resistant strain number, Gram+ strains; details: 18 h, versus susceptible strains
Protocol: as §1, §2, §3, §4, §5, §6

Escherichia coli (76 F) = assay: MIC in broth, Gram- strains; details: 18 h, E. coli (76 F), read-out: Minimal Inhibitory Concentration (MIC)
Protocol: as §3, §4, §5
(§7) Evaluation of the Minimal Inhibitory Concentration (MIC) in broth of 16 new substances for Gram- bacterial strains.
(§8) The following strains were used: Enterobacter (1), Escherichia (3), Klebsiella (3), Proteus (3); Pseudomonas (2); Salmonella (2), Serratia (1).

Klebsiella oxytoca (552) = assay: MIC in broth, Gram- strains; details: 18 h, read-out: Minimal Inhibitory Concentration (MIC)
Protocol: as §3, §4, §5, §7, §8

[5] = tested on: Pseudomonas aeruginosa (3 E); assay: MIC in broth, Gram- strains; details: 18 h, read-out: Minimal Inhibitory Concentration (MIC)
Protocol: as §3, §4, §5, §7, §8

[6] = tested on: Salmonella typhimurium (D.S.); assay: MIC in broth, Gram- strains; details: Salmonella enterica, 18 h, read-out: Minimal Inhibitory Concentration (MIC)
Protocol: as §3, §4, §5, §7, §8

Gram- bacterial strains = assay: Mean MIC in broth and resistant strain number, Gram- strains; details: 18 h, read-out: Mean MIC values
Protocol: as §3, §4, §5, §7, §8

[7] = tested on: Staphylococcus aureus (306 MR); assay: MIC in broth, Gram+ strains; details: S. aureus (306 MR), Mueller-Hinton broth, 37° C., 18 hours, read-out: Minimal Inhibitory Concentration (MIC)
Protocol: as §1, §2, §3, §4, §5, §6

[8] = tested on: Staphylococcus aureus (ATCC 14154); assay: MIC in broth, Gram+ strains; details: ATCC14154, S. aureus (ATCC 14154), Mueller-Hinton broth, 37° C., 18 hours, read-out: Minimal Inhibitory Concentration (MIC)
Protocol: as §1, §2, §3, §4, §5, §6

[9] = tested on: Bacillus pumilus (CN 607); assay: MIC in broth, Gram+ strains; details: B. pumilus (CN 607), Mueller-Hinton broth, 37° C., 18 hours, read-out: Minimal Inhibitory Concentration (MIC)
Protocol: as §1, §2, §3, §4, §5, §6

[10] = tested on: Streptococcus faecalis (501); assay: MIC in broth, Gram+ strains; details: Enterococcus faecalis; S. faecalis (501), Mueller-Hinton broth, 37° C., 18 hours; read-out: Minimal Inhibitory Concentration (MIC)
Protocol: as §1, §2, §3, §4, §5, §6

[11] = tested on: Streptococcus faecalis (509); assay: MIC in broth, Gram+ strains; details: Enterococcus faecalis; S. faecalis (509), Mueller-Hinton broth, 37° C., 18 hours; read-out: Minimal Inhibitory Concentration (MIC)
Protocol: as §1, §2, §3, §4, §5, §6

[12] = tested on: Enterobacter aerogenes (UM); assay: MIC in broth, Gram- strains; details: Klebsiella aerogenes, 18 h, read-out: Minimal Inhibitory Concentration (MIC)
Protocol: as §3, §4, §5, §7, §8

Escherichia coli (92 F) = assay: MIC in broth, Gram- strains; details: 18 h, E. coli (92 F), read-out: Minimal Inhibitory Concentration (MIC)
Protocol: as §3, §4, §5, §7, §8

Proteus vulgaris (UM) = assay: MIC in broth, Gram- strains; details: 18 h, read-out: Minimal Inhibitory Concentration (MIC)
Protocol: as §3, §4, §5, §7, §8

[13] = tested on: Bacillus subtilis (ATCC 6051); assay: MIC in broth, Gram+ strains; details: ATCC6051, B. subtilis (ATCC 6051), Mueller-Hinton broth, 37° C., 18 hours, read-out: Minimal Inhibitory Concentration (MIC)
Protocol: as §1, §2, §3, §4, §5, §6

[14] = tested on: Streptococcus faecalis (505); assay: MIC in broth, Gram+ strains; details: Enterococcus faecalis; S. faecalis (505), Mueller-Hinton broth, 37° C., 18 hours; read-out: Minimal Inhibitory Concentration (MIC)
Protocol: as §1, §2, §3, §4, §5, §6

[15] = tested on: Streptococcus faecalis (516); assay: MIC in broth, Gram+ strains; details: Enterococcus faecalis; S. faecalis (516), Mueller-Hinton broth, 37° C., 18 hours; read-out: Minimal Inhibitory Concentration (MIC)
Protocol: as §1, §2, §3, §4, §5, §6

[16] = tested on: Streptococcus faecalis (R 2); assay: MIC in broth, Gram+ strains; details: Enterococcus faecalis; S. faecalis (R 2), Mueller-Hinton broth, 37° C., 18 hours; read-out: Minimal Inhibitory Concentration (MIC)
Protocol: as §1, §2, §3, §4, §5, §6

[17] = tested on: Streptococcus faecalis (UM); assay: MIC in broth, Gram+ strains; details: Enterococcus faecalis; S. faecalis (UM), Mueller-Hinton broth, 37° C., 18 hours; read-out: Minimal Inhibitory Concentration (MIC)
Protocol: as §1, §2, §3, §4, §5, §6

[18] = Gram- strains, versus susceptible strains

Compound | MIC [1] | MIC [2] | MIC [3] | MIC [4] | MIC (Gram+ bacterial strains) | MIC (Escherichia coli (76 F)) | MIC (Klebsiella oxytoca (552)) | MIC [5] | MIC [6] | MIC (Gram- bacterial strains; [18]) | MIC [7] | MIC [8] | MIC (Gram- bacterial strains) | MIC [9] | MIC [10] | MIC [11] | MIC [12] | MIC (Escherichia coli (92 F)) | MIC (Proteus vulgaris (UM)) | MIC [13] | further results
CCCCCCCCCCCCCCCC(=O)OC(CC(=O)OCCCCCCCCCCC)C[N+](C)(C)C (centres unmarked) [ST 983] | > 100 µg/mL | > 100 µg/mL | > 100 µg/mL | > 100 µg/mL | > 100 µg/mL | > 100 µg/mL | > 100 µg/mL | > 100 µg/mL | > 100 µg/mL | > 100 µg/mL | – | – | – | – | – | – | – | – | – | – | –
CCCCCCCCCCCOC(=O)CC(C[N+](C)(C)C)OC(=O)CCCCCCC (centres unmarked) [ST 1000] | – | 1.56 µg/mL | 3.12 µg/mL | 3.12 µg/mL | 2.49 µg/mL | > 100 µg/mL | > 100 µg/mL | > 100 µg/mL | > 100 µg/mL | – | 3.12 µg/mL | 1.56 µg/mL | > 100 µg/mL | – | – | – | – | – | – | – | –
CCCCCCCCCCCCCOC(=O)CC(C[N+](C)(C)C)OC(=O)CCCCCC (centres unmarked) [ST 1050] | 6.25 µg/mL | – | – | – | 4.06 µg/mL | – | > 100 µg/mL | > 100 µg/mL | – | – | 6.25 µg/mL | – | > 100 µg/mL | 1.56 µg/mL | 3.12 µg/mL | 3.12 µg/mL | > 100 µg/mL | > 100 µg/mL | > 100 µg/mL | – | –
CCCCCCCCCCCCOC(=O)CC(C[N+](C)(C)C)OC(=O)CC(C)C (centres unmarked) [ST 1037] | 3.12 µg/mL | 3.12 µg/mL | 1.56 µg/mL | 1.56 µg/mL | 2.34 µg/mL | – | – | > 100 µg/mL | > 100 µg/mL | 62.5 µg/mL | 3.12 µg/mL | 3.12 µg/mL | – | 1.56 µg/mL | 3.12 µg/mL | 1.56 µg/mL | 25 µg/mL | 100 µg/mL | > 100 µg/mL | 3.12 µg/mL | MIC [14]: 3.12 µg/mL; MIC [15]: 1.56 µg/mL; MIC [16]: 1.56 µg/mL; MIC [17]: 1.56 µg/mL
CCCCCCCCCCCCCCCCOC(=O)CC(C[N+](C)(C)C)OC(=O)CC(C)C (centres unmarked) [ST 1001] | 6.25 µg/mL | 12.5 µg/mL | 3.12 µg/mL | 3.12 µg/mL | 5.35 µg/mL | – | – | > 100 µg/mL | > 100 µg/mL | – | 6.25 µg/mL | 6.25 µg/mL | > 100 µg/mL | 6.25 µg/mL | 3.12 µg/mL | 3.12 µg/mL | > 100 µg/mL | > 100 µg/mL | > 100 µg/mL | 12.5 µg/mL | MIC [14]: 3.12 µg/mL; MIC [15]: 3.12 µg/mL; MIC [16]: 3.12 µg/mL; MIC [17]: 3.12 µg/mL
CCCCCCCCCCCCCOC(=O)CC(C[N+](C)(C)C)OC(=O)C(C)CCCC (centres unmarked) [ST 1051] | 6.25 µg/mL | – | – | – | 6.56 µg/mL | – | > 100 µg/mL | > 100 µg/mL | – | – | 12.5 µg/mL | – | > 100 µg/mL | 1.56 µg/mL | 6.25 µg/mL | 6.25 µg/mL | > 100 µg/mL | > 100 µg/mL | > 100 µg/mL | – | –
CCCCCCCCCCCCCOC(=O)CC(C[N+](C)(C)C)OC(=O)CCCCC (centres unmarked) [ST 1052] | 3.12 µg/mL | – | – | – | 2.49 µg/mL | – | > 100 µg/mL | > 100 µg/mL | – | – | 3.12 µg/mL | – | > 100 µg/mL | 1.56 µg/mL | 3.12 µg/mL | 1.56 µg/mL | > 100 µg/mL | > 100 µg/mL | > 100 µg/mL | 3.12 µg/mL | –
CCCCCCCCCCCOC(=O)CC(C[N+](C)(C)C)OC(=O)CCCCCCCCCC (centres unmarked) [ST 982] | > 100 µg/mL | 3.12 µg/mL | 1.56 µg/mL | 3.12 µg/mL | 2.6 µg/mL | > 100 µg/mL | > 100 µg/mL | > 100 µg/mL | > 100 µg/mL | > 100 µg/mL | – | – | – | – | – | – | – | – | – | – | –
CCCCCCCCCCCCCOC(=O)CC(C[N+](C)(C)C)OC(=O)CC(C)C (centres unmarked) [ST 1033] | 3.12 µg/mL | 1.56 µg/mL | 1.56 µg/mL | 1.56 µg/mL | 2.11 µg/mL | – | – | > 100 µg/mL | > 100 µg/mL | 100 µg/mL | 3.12 µg/mL | 3.12 µg/mL | – | 1.56 µg/mL | 3.12 µg/mL | 1.56 µg/mL | 100 µg/mL | > 100 µg/mL | > 100 µg/mL | 3.12 µg/mL | MIC [14]: 1.56 µg/mL; MIC [15]: 1.56 µg/mL; MIC [16]: 1.56 µg/mL; MIC [17]: 1.56 µg/mL
CCCCCCCCCCCCCOC(=O)CC(C[N+](C)(C)C)OC(=O)CCCCCCC (centres unmarked) [ST 1053] | 6.25 µg/mL | – | – | – | 4.37 µg/mL | – | > 100 µg/mL | > 100 µg/mL | – | – | 6.25 µg/mL | – | > 100 µg/mL | 1.56 µg/mL | 6.25 µg/mL | 1.56 µg/mL | > 100 µg/mL | > 100 µg/mL | > 100 µg/mL | – | –
